Here are results for seven compounds from paper PMC7115586 (European Journal of Medicinal Chemistry, 2013).

pEC50: −log10 of the molar value. Bounds are passed on as bounds.

A short description of data set [1]: Solubility in methanol or water. Format: physicochemical. As to conditions: insufficient to measure the 13C NMR spectrum.
The subject of data set [2] is a wide variety of DNA and RNA viruses. Nature of the data set: All biological tests. Format: cell-based. As to conditions: antiviral and cytostatic tests.
In data set [3] the test system is feline herpes virus (FHV). It is filed as cell-based. As to conditions: CRFK, read-out: EC50 against feline herpes virus.

For the compound `Nc1ncnc2c1ncn2Cc1cn(CCCCP(=O)(O)O)nn1` [Compound 32a, 4-(4-{[6-Aminopurin-9-yl]methyl}-1H-1,2,3-triazol-1-yl)butylphosphonic acid], the “solubility in methanol or water” value in data set [1] is recorded as “insufficient”.

For “4-(4-{[6-Aminopurin-9-yl]methyl}-1H-1,2,3-triazol-1-yl)butylphosphonic acid [Compound 32b]”, the “solubility in methanol or water” value in data set [1] was “insufficient”.

“3-(4-{[3-Benzoyl-2,4-dioxopyrimidin-1-yl]methyl}-1H-1,2,3-triazol-1-yl)propylphosphonic acid [Compound 31e]”: in data set [2], the “activity in all biological tests” value was “inactive”.

For `Cc1cc2ncn(Cc3cn(CCCP(=O)(O)O)nn3)c2cc1C` [Compound 31j, 3-{4-[(5,6-Dimethyl-benzimidazol-1-yl)methyl]-1H-1,2,3-triazol-1-yl}propylphosphonic acid], the “activity in all biological tests” value in data set [2] was “inactive”.

In the case of `CCOP(=O)(CCCn1cc(Cn2ccc(=O)n(C(=O)c3ccccc3)c2=O)nn1)OCC` [Compound 22m, Diethyl 3-(4-{[3-benzoyl-2,4-dioxopyrimidin-1-yl]methyl}-1H-1,2,3-triazol-1-yl)propylphosphonate], the pEC50 in data set [3] was less than 3.70.

In the case of `Cn1c(=O)c2c(ncn2Cc2cn(CC(O)P(=O)(O)O)nn2)n(C)c1=O` (stereo not shown) [Compound 33i, 3-{4-[(1,3-Dimethyl-2,6-dioxopurin-7-yl)methyl]-1H-1,2,3-triazol-1-yl}-1-hydroxyethyphosphonic acid], the “solubility in methanol or water” value in data set [1] is “insufficient”.

As to `Cn1c(=O)c2c(nc(Cl)n2Cc2cn(CCCP(=O)(O)O)nn2)n(C)c1=O` [Compound 31g, 3-{4-[(8-Chloro-1,3-dimethyl-2,6-dioxopurin-7-yl)methyl]-1H-1,2,3-triazol-1-yl}propylphosphonic acid], the “solubility in methanol or water” value in data set [1] is given as “insufficient”.

As a reminder, the pEC50 is the EC50 on a negative log10 scale, so that one unit is a factor of ten.
